Converted amounts (≈) assume the structure as drawn. Counter-ions that a name gives are not always drawn. Like-named read-outs stand apart in the source and are kept apart here.
Key:
[1] = test system: 16 C. difficile isolates; assay: MIC by broth microdilution, summary over 16 C. difficile isolates; assay type: cell-based, Clostridium difficile; conditions: for MIC50: MIC at which 50% of the 16 isolates are inhibited; for MIC90: MIC at which 90% of the 16 isolates are inhibited
[2] = test system: C. difficile strain 4118 (CD4118, ATCC BAA-1870, ribotype 027); assay: MIC by broth microdilution; assay type: cell-based, Clostridium difficile; conditions: BHIS broth, anaerobic, 20–24 h, n = 2; for MIC: Clostridioides difficile, ATCCBAA1870, read-out: MIC C. difficile 4118
[3] = test system: C. difficile isolate 20110869 (ribotype 001_072); assay: MIC by broth microdilution; assay type: cell-based, Clostridium difficile; conditions: Clostridioides difficile; isolate 20110869, ribotype 001_072; duplicate; read-out: MIC
[4] = test system: C. difficile isolate 20110742 (ribotype 002); assay: MIC by broth microdilution; assay type: cell-based, Clostridium difficile; conditions: Clostridioides difficile; isolate 20110742, ribotype 002; duplicate; read-out: MIC
[5] = test system: C. difficile isolate 20100584 (ribotype 014); assay: MIC by broth microdilution; assay type: cell-based, Clostridium difficile; conditions: Clostridioides difficile; isolate 20100584, ribotype 014; duplicate; read-out: MIC
[6] = test system: C. difficile isolate 20110960 (ribotype 017); assay: MIC by broth microdilution; assay type: cell-based, Clostridium difficile; conditions: Clostridioides difficile; isolate 20110960, ribotype 017; duplicate; read-out: MIC
[7] = test system: C. difficile isolate 20110740 (ribotype 018); assay: MIC by broth microdilution; assay type: cell-based, Clostridium difficile; conditions: Clostridioides difficile; isolate 20110740, ribotype 018; duplicate; read-out: MIC
[8] = test system: C. difficile isolate 20120016 (ribotype 019); assay: MIC by broth microdilution; assay type: cell-based, Clostridium difficile; conditions: Clostridioides difficile; isolate 20120016, ribotype 019; duplicate; read-out: MIC
[9] = test system: C. difficile isolate 20110566 (ribotype 020); assay: MIC by broth microdilution; assay type: cell-based, Clostridium difficile; conditions: Clostridioides difficile; isolate 20110566, ribotype 020; duplicate; read-out: MIC
[10] = test system: C. difficile isolate 20111163 (ribotype 024); assay: MIC by broth microdilution; assay type: cell-based, Clostridium difficile; conditions: Clostridioides difficile; isolate 20111163, ribotype 024; duplicate; read-out: MIC
[11] = test system: C. difficile isolate 20121412 (ribotype 047); assay: MIC by broth microdilution; assay type: cell-based, Clostridium difficile; conditions: Clostridioides difficile; isolate 20121412, ribotype 047; duplicate; read-out: MIC
[12] = test system: C. difficile isolate 20100422 (ribotype 054); assay: MIC by broth microdilution; assay type: cell-based, Clostridium difficile; conditions: Clostridioides difficile; isolate 20100422, ribotype 054; duplicate; read-out: MIC
[13] = test system: C. difficile isolate 20110986 (ribotype 078); assay: MIC by broth microdilution; assay type: cell-based, Clostridium difficile; conditions: Clostridioides difficile; isolate 20110986, ribotype 078; duplicate; read-out: MIC
[14] = test system: C. difficile isolate 20110973 (ribotype 106); assay: MIC by broth microdilution; assay type: cell-based, Clostridium difficile; conditions: Clostridioides difficile; isolate 20110973, ribotype 106; duplicate; read-out: MIC
[15] = test system: C. difficile isolate 20121190 (ribotype 126); assay: MIC by broth microdilution; assay type: cell-based, Clostridium difficile; conditions: Clostridioides difficile; isolate 20121190, ribotype 126; duplicate; read-out: MIC
[16] = test system: C. difficile isolate 20110961 (ribotype A12); assay: MIC by broth microdilution; assay type: cell-based, Clostridium difficile; conditions: Clostridioides difficile; isolate 20110961, ribotype A12; duplicate; read-out: MIC
[17] = test system: C. difficile strain 4118; assay: Minimum bactericidal concentration (MBC), logarithmic- and stationary-phase cells; assay type: cell-based, Clostridium difficile
Experimental: The procedure for MBC determination was adapted from that of Alam et al.[44]. Briefly, a single overnight colony of C. difficile strain 4118 (streaked onto blood agar plate) was suspended in BHIS and grown to OD600 ~ 0.4–0.5 (logarithmic phase) or for 24 h (stationary phase). In 96-well microtiter plates, cultures were added to two-fold serial dilutions of test compounds in BHIS and incubated for 20–24 h at 37 °C in an anaerobic chamber. […] MBC measurements were performed in duplicate.

[18] = test system: B. breve Strain EX336960VC19; assay: MIC by broth microdilution; assay type: cell-based; conditions: Bifidobacterium breve; B. breve EX336960VC19; LSM broth, anaerobic; duplicate; read-out: MIC
[19] = test system: B. longum subsp. longum Strain 44B; assay: MIC by broth microdilution; assay type: cell-based; conditions: Bifidobacterium longum; B. longum subsp. longum 44B; LSM broth, anaerobic; duplicate; read-out: MIC
[20] = test system: C. clostridioforme ATCC 25537; assay: MIC by broth microdilution; assay type: cell-based, Clostridium clostridioforme; conditions: Clostridium, ATCC25537; C. clostridioforme ATCC 25537; BHIS, anaerobic; duplicate; read-out: MIC
[21] = test system: L. johnsonii Strain 135-1-CHN; assay: MIC by broth microdilution; assay type: cell-based; conditions: Lactobacillus johnsonii, STRAIN1351CHN; L. johnsonii 135-1-CHN; CAMHB with 5% laked horse blood, ~48 h; duplicate; read-out: MIC
[22] = test system: L. plantarum ATCC 8014; assay: MIC by broth microdilution; assay type: cell-based; conditions: Lactiplantibacillus plantarum, ATCC8014; L. plantarum ATCC 8014; CAMHB with 5% laked horse blood, ~48 h; duplicate; read-out: MIC
[23] = test system: L. reuteri Strain CF48-3A; assay: MIC by broth microdilution; assay type: cell-based, Lactobacillus reuteri; conditions: Limosilactobacillus reuteri; L. reuteri CF48-3A; CAMHB with 5% laked horse blood, ~48 h; duplicate; read-out: MIC
[24] = test system: B. fragilis Strain CL05T00C42; assay: MIC by broth microdilution; assay type: cell-based; conditions: Bacteroides fragilis
[25] = test system: B. thetaiotaomicron ATCC 29148; assay: microbe, parasite or virus in culture; assay type: cell-based; conditions: Bacteroides thetaiotaomicron, ATCC29148
[26] = test system: P. distasonis ATCC 8503; assay: MIC by broth microdilution; assay type: cell-based; conditions: Parabacteroides distasonis, ATCC8503
[27] = test system: P. nigrescens ATCC 33563; assay: MIC by broth microdilution; assay type: cell-based; conditions: Prevotella nigrescens, ATCC33563
[28] = test system: B. subtilis ATCC 6051; assay: MIC by broth microdilution; assay type: cell-based; conditions: Bacillus subtilis, ATCC6051; B. subtilis ATCC 6051; CAMHB, aerobic; duplicate; read-out: MIC
[29] = test system: S. aureus RN4220; assay: MIC by broth microdilution; assay type: cell-based; conditions: Staphylococcus aureus, CAMHB, aerobic, duplicate
[30] = test system: S. epidermidis 1457; assay: MIC by broth microdilution; assay type: cell-based; conditions: Staphylococcus epidermidis; S. epidermidis 1457; CAMHB, aerobic; duplicate; read-out: MIC
[31] = test system: A. baumannii M2; assay: MIC by broth microdilution; assay type: cell-based; conditions: Acinetobacter baumannii; A. baumannii M2; CAMHB, aerobic; duplicate; read-out: MIC
[32] = test system: P. aeruginosa PAO1; assay: MIC by broth microdilution; assay type: cell-based; conditions: Pseudomonas aeruginosa; P. aeruginosa PAO1; CAMHB, aerobic; duplicate; read-out: MIC
[33] = Hemolysis assay; assay type: cell-based; conditions: sheep, sheep red blood cells (3% suspension), pH 7.4; 32 µg/mL, 1 h, 37 °C; 1% Triton X-100 positive control; triplicate; read-out: Hemolysis (%)
Experimental: Sheep red blood cells (Innovative Research, Novi, MI, USA) were washed three times with PBS pH 7.4. A 3% cell suspension in PBS (100 μL) was added to test compounds in PBS (100 μL, to a final concentration of 32 μg/mL), and then incubated at 37 °C for 1 h. The plate was centrifuged at 500 × g for 10 min, and supernatants (100 μL) were transferred to a clean 96-well plate. Hemolysis was determined by measuring absorbance at 540 nm, with 1% Triton X-100 as the positive control and 0.5% DMSO in PBS as the negative control. Hemolysis assays were performed in triplicate.

Compound: O=C(Nc1ccc(Oc2ccc(Cl)cc2)cc1)c1cc(Cl)cc(Cl)c1O [Compound 8]
- MIC ([1]; Clostridioides difficile, 14 isolates other than CD630 and CD4118, read-out: MIC values ranging, 14 other C. difficile isolates): 0.03 to 0.25 µg/mL (≈ 0.0734 to 0.612 µM)
- MIC50 ([1]; n = 2): 0.06 µg/mL (≈ 0.147 µM)
- MIC90 ([1]; n = 2): 0.25 µg/mL (≈ 0.612 µM)
- MIC [2]: 0.06 µg/mL (≈ 0.147 µM)
- MIC [3]: 0.06 to 0.13 µg/mL (≈ 0.147 to 0.318 µM)
- MIC [4]: 0.06 µg/mL (≈ 0.147 µM)
- MIC [5]: 0.06 µg/mL (≈ 0.147 µM)
- MIC [6]: 0.06 µg/mL (≈ 0.147 µM)
- MIC [7]: 0.06 µg/mL (≈ 0.147 µM)
- MIC [8]: 0.13 µg/mL (≈ 0.318 µM)
- MIC [9]: 0.06 µg/mL (≈ 0.147 µM)
- MIC [10]: 0.13 µg/mL (≈ 0.318 µM)
- MIC [11]: 0.13 µg/mL (≈ 0.318 µM)
- MIC [12]: 0.25 µg/mL (≈ 0.612 µM)
- MIC [13]: 0.06 µg/mL (≈ 0.147 µM)
- MIC [14]: 0.03 µg/mL (≈ 0.0734 µM)
- MIC [15]: 0.25 µg/mL (≈ 0.612 µM)
- MIC [16]: 0.13 µg/mL (≈ 0.318 µM)
- MBC ([17]; Clostridioides difficile, 4118, minimum bactericidal concentration (≥3-log reduction) for logarithmic-phase cells, 20–24 h, n = 2, read-out: MBClog): 0.25 µg/mL (≈ 0.612 µM)
- MBC ([17]; Clostridioides difficile, 4118, minimum bactericidal concentration (≥3-log reduction) for stationary-phase cells, 20–24 h, n = 2, read-out: MBCstat): 1 µg/mL (≈ 2.45 µM)
- MIC [18]: 8 µg/mL (≈ 19.6 µM)
- MIC [19]: 8 µg/mL (≈ 19.6 µM)
- MIC [20]: 4 µg/mL (≈ 9.79 µM)
- MIC [21]: 32 µg/mL (≈ 78.3 µM)
- MIC [22]: 16 µg/mL (≈ 39.2 µM)
- MIC [23]: 16 µg/mL (≈ 39.2 µM)
- MIC ([24]; B. fragilis CL05T00C42, supplemented Brucella broth, anaerobic, duplicate, read-out: MIC): 16 µg/mL (≈ 39.2 µM)
- MIC ([25]; B. thetaiotaomicron ATCC 29148, supplemented Brucella broth, anaerobic, duplicate, read-out: MIC): > 32 µg/mL
- MIC ([26]; P. distasonis ATCC 8503, supplemented Brucella broth, anaerobic, duplicate, read-out: MIC): 4 µg/mL (≈ 9.79 µM)
- MIC ([27]; P. nigrescens ATCC 33563, supplemented Brucella broth, anaerobic, duplicate, read-out: MIC): 4 µg/mL (≈ 9.79 µM)
- MIC [28]: ≤ 0.03 µg/mL
- MIC [29]: 0.13 µg/mL (≈ 0.318 µM)
- MIC [30]: ≤ 0.03 µg/mL
- MIC [31]: 32 µg/mL (≈ 78.3 µM)
- MIC [32]: > 32 µg/mL
- hemolysis at 1 h, 32 µg/mL [33]: < 1%

Compound: CN[C@H](CC(C)C)C(=O)N[C@H]1C(=O)N[C@@H](CC(N)=O)C(=O)N[C@H]2C(=O)N[C@H]3C(=O)N[C@H](C(=O)N[C@H](C(=O)O)c4cc(O)cc(O)c4-c4cc3ccc4O)[C@H](O)c3ccc(c(Cl)c3)Oc3cc2cc(c3O[C@@H]2O[C@H](CO)[C@@H](O)[C@H](O)[C@H]2O[C@H]2C[C@](C)(N)[C@H](O)[C@H](C)O2)Oc2ccc(cc2Cl)[C@H]1O [Vancomycin, vancomycin hydrochloride hydrate]
- MIC50 ([1]; Clostridioides difficile, n = 2, read-out: MIC50): 1 µg/mL
- MIC90 ([1]; Clostridioides difficile, n = 2, read-out: MIC90): 2 µg/mL
- MIC Range ([1]; range over 16 C. difficile isolates, n = 2): 0.5 to 2 µg/mL
- MIC C. difficile 4118 [2]: 2 µg/mL
- MIC [2]: 2 µg/mL
- MIC [3]: 1 µg/mL
- MIC [4]: 0.5 to 1 µg/mL
- MIC [5]: 0.5 µg/mL
- MIC [6]: 0.5 µg/mL
- MIC [7]: 1 µg/mL
- MIC [8]: 0.5 µg/mL
- MIC [9]: 0.5 µg/mL
- MIC [10]: 1 µg/mL
- MIC [11]: 1 µg/mL
- MIC [12]: 1 µg/mL
- MIC [13]: 0.5 to 1 µg/mL
- MIC [14]: 2 µg/mL
- MIC [15]: 0.5 µg/mL
- MIC [16]: 1 µg/mL
- MBC ([17]; Clostridioides difficile, 4118, read-out: MBClog): 8 µg/mL
- MBC ([17]; Clostridioides difficile, 4118, read-out: MBCstat): > 32 µg/mL
- log reduction of CD4118 stationary-phase cells ([17]; at 32 μg/mL, 20–24 h): < 3 log
- MIC [18]: 0.5 µg/mL
- MIC [19]: 0.25 µg/mL
- MIC [20]: 0.5 µg/mL
- MIC [21]: 0.5 µg/mL
- MIC [22]: > 32 µg/mL
- MIC [23]: > 32 µg/mL
- MIC [24]: 32 µg/mL
- MIC [25]: > 32 µg/mL
- MIC [26]: > 32 µg/mL
- MIC [27]: > 32 µg/mL
- MIC [28]: 0.13 µg/mL
- MIC [29]: 1 µg/mL
- MIC [30]: 2 µg/mL
- MIC [31]: > 32 µg/mL
- MIC [32]: > 32 µg/mL

Source: article PMC5025651, “Reprofiled anthelmintics abate hypervirulent stationary-phase Clostridium difficile” (Scientific Reports, 2016)
